According to publication PMC12010006, “Subnanomolar MAS-related G protein-coupled receptor-X2/B2 antagonists with efficacy in human mast cells and disease models” (Signal Transduction and Targeted Therapy, 2025):
pIC50: −log10 of the molar value.

Biological target: T1, MRGPRX2 (Homo sapiens, UniProt Q96LB1)
T1 sequence (Q96LB1 1-330): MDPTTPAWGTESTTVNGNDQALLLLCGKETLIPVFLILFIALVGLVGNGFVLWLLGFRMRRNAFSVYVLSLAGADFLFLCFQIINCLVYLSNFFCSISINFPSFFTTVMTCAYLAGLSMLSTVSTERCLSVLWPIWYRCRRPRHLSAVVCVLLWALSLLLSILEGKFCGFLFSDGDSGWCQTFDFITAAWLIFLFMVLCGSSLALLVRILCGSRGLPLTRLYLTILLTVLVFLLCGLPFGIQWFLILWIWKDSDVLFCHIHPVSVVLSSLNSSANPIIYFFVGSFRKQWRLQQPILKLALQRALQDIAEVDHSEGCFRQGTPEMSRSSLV
Assay: Degranulation (β-hexosaminidase release), RBL-MRGPRX2 cells
Format: cell-based
Description: Having a competitive MRGPRX2 antagonist with subnanomolar potency in hand, we next studied its effects on MCs. Activation of MRGPRX2, which is highly expressed in skin MCs, results in degranulation and histamine release.[19] We therefore investigated whether PSB-172656 inhibits MRGPRX2-mediated MC activation utilizing the rat MC line RBL-2H3 recombinantly expressing the human MRGPRX2 (designated RBL-MRGPRX2). These cells were treated with two different concentrations of PSB-172656 (100 nM and 300 nM), and then exposed to different MRGPRX2 agonists, namely C48/80 (0.3 µg/mL), SP (0.3 µM), and PAMP-12 (0.1 µM), respectively. Degranulation of the cells was assayed by β-hexosaminidase release measurements.
Fig. 5 PSB-172656 blocks MRGPRX2-induced mast cell degranulation without affecting IgE-mediated responses. a RBL-MRGPRX2 cells were incubated with control (vehicle) or preincubated with PSB-172656 (100 or 300 nM), followed by stimulation with C48/80 (0.3 µg/mL), substance P (SP; 0.3 µM), or PAMP-12 (0.1 µM), and β-hexosaminidase release was measured. RBL-MRGPRX2 cells were sensitized with monoclonal anti-dinitrophenyl antibody (DNP-specific IgE), and degranulation induced by 2,4-dinitrophenylated bovine serum albumin (DNP-BSA, 10 and 30 ng/mL) was measured without or after preincubation with PSB-172656 (0.1 and 0.3 µM). […] Data are expressed as means ± SEM of 3 biological replicates. Statistical significance was determined by two-way ANOVA (Tukey’s multiple comparisons)
Rat basophilic leukemia (RBL-2H3) cells that stably expressed the human MGPRGX2 (RBL-MRGPRX2) were grown in Dulbecco’s modified Eagle’s medium (DMEM) supplemented with 10% FBS, L-glutamine (2 mM), penicillin (100 IU/mL), and streptomycin (100 µg/mL).[42]
Degranulation as determined by β-hexosaminidase release was performed as described previously.[66],[67] Briefly, RBL-MRGPRX2 cells (5 × 10^4 cells/well) were seeded into 96-well cell culture plates. After 16 h, cells were treated with PSB-172656 or solvent for 5 min in HEPES buffer containing 0.1% bovine serum albumin (BSA), and then activated with MRGPRX2 agonist (C48/80, SP, PAMP-12, or LL-37) for 30 min at 37 °C. For measurement of total β-hexosaminidase content, unstimulated cells were lyzed by Triton X-100 (0.1%). Aliquots (20 µL) of supernatant were incubated with 20 µL of 1 mM 4-nitrophenyl-N-acetyl-β-D-glucosaminide (PNAG) for 1 h at 37°C. Finally, the reaction was stopped by adding 250 µL of 0.1 M Na2CO3/0.1 M NaHCO3 buffer, and absorbance was determined with a Versamax microplate spectrophotometer (Molecular Devices, San José, CA) at a wavelength of 405 nm. The degranulation was quantitated as a percentage of β-hexosaminidase release by dividing the β-hexosaminidase in the sample by the total enzyme content. To test the antigen response, RBL-MRGPRX2 (5 × 10^4 cells/well) cells were sensitized with DNP-specific mouse IgE (SPE-7; 1 µg/mL). After 16 h, cells were preincubated in the absence or presence of respective concentrations of PSB-172656 for 5 min, followed by the stimulation of antigen (DNP-BSA, 10 and 30 ng/mL), and the degranulation was measured as described above. For degranulation in LAD2 cells, 1 × 10^4 cells/well were seeded into 96-well cell culture plates, incubated with or without PSB-172656 for 5 min, then with the MRGPRX2 agonist SP for 30 min, and degranulation was measured similarly.

effect on MC degranulation in response to C48/80 (100 nM and 300 nM, C48/80 0.3 µg/mL): completely abolished | effect on MC degranulation in response to PAMP-12 (100 nM and 300 nM, PAMP-12 0.1 µM): substantially inhibited | effect on MC degranulation in response to SP (100 nM and 300 nM, SP 0.3 µM): completely abolished | pIC50 (versus C48/80 (0.3 µg/mL)): 8.42 | pIC50 (versus LL-37 (3 µM)): 8.09 | pIC50 (versus PAMP-12 (0.1 µM)): 7.93 | pIC50 (versus SP (0.3 µM)): 7.81
Compound: CCc1c(C(C)C)[nH]c2nc3cc(F)c(F)cc3n2c1=O [Compound 24, 3-ethyl-7,8-difluoro-2-isopropylbenzo[4,5]imidazo [1,2-a] pyrimidin-4(1H)-one]
